Reference: patent US20240173440A1, “HIGH PURITY COPPER RADIOPHARMACEUTICAL COMPOSITIONS AND DIAGNOSTIC AND THERAPEUTIC USES THEREOF” (Nuclidium AG, priority 2022, published 2024)

Tests used:
HEK-SST2 xenografts = test: PET/CT imaging in HEK-SST2 xenografted mice; format: in vivo; conditions: 0-60 min and 240 min
Protocol: (§1) Tumor xenografted mice were injected intravenously into the tail vein with the tested radiotracer. […] Mice were anesthetized with 1.5% isoflurane and dynamic PET scans were acquired during 1 hour upon injection of the radiotracer. The mice were euthanized by CO2 at 4 hours p.i., the bladder was mechanically emptied, and static PET scans were acquired for 30 min. PET images were acquired using the R-CUBE PET scanner system (MOLECUBES, Gent, Belgium) and they were decay corrected and reconstructed with the VivoQuant software version 4.0. The CT was imaged supine, headfirst, using the NanoSPECT/CT™ scanner (Bioscan Inc.). Topograms and helical CT scans of the whole mouse were first acquired using the following parameters: X-ray tube current: 177 μA, X-ray tube voltage 45 kVp, 90 seconds and 180 frames per rotation, pitch 1. CT images were reconstructed using CTReco (version r1.146), with a standard filtered back projection algorithm (exact cone beam) and post-filtered (RamLak, 100% frequency cut-off), resulting in a pixel size of 0.2 mm. Co-registered PET/CT images were visualized using maximum intensity projection (MIP) with InVivoScope (version 1.43, Bioscan Inc.). The results are presented in the Examples that follow.

in vivo = conditions: iv, 20 umol, total radioactivity
Protocol: The tumors were allowed to grow for 1-3 weeks before commencement of the experiments.
(§2) The mice were randomly distributed in groups and euthanized at 1 and at 4 hours post-injection. The organs of interest were collected, rinsed, blotted, weighed and counted in a gamma counter. The results are expressed as percentage of injected activity per gram (% IA/g), representing the mean±standard deviation of n=4-8 mice per group and they were obtained by extrapolation from counts of an aliquot taken from the injected solution as standard.
The mice were randomly distributed in groups, injected with the radiotracer under investigation and euthanized at 1 and at 4 hours post-injection of the radiotracers under investigation. The organs of interest were collected, rinsed, blotted, weighed and counted in a gamma counter. The results are expressed as percentage of injected activity per gram (% IA/g), representing the mean±standard deviation of all mice per group and they were obtained by extrapolation from counts of an aliquot taken from the injected solution as standard.
The mice were randomly distributed in groups and euthanized at 4 hours post-injection. The organs of interest were collected, rinsed, blotted, weighed, and their respective radioactivity was counted in a gamma counter.

[1] = Lipophilicity, log D by shake-flask method (1-octanol/PBS pH 7.4); format: physicochemical; conditions: shake-flask, Table 17, mean ± SD
Protocol: The radiotracer (1 μM) was added to a 50:50 pre-saturated mixture of 1-octanol and phosphate buffered saline (PBSpH 7.4). The solution was vortexed for 30 min and then centrifuged at 3,000 rpm to achieve a phase separation. Aliquots from each phase were collected and measured in a gamma-counter. The distribution coefficient was calculated as the average of the logarithmic values of the ratio between the radioactivity in the organic and the PBS phase.
Table 17. Lipophilicity expressed as the log distribution coefficient D (log D(Octanol/PBS pH7.4)) of ^61Cu-radiotracers versus ^68Ga-radiotracers (reference radiotracers).
In a pre-lubricated Eppendorf tube, a pre-saturated mixture of 500 μL of 1-octanol and 500 μL of PBS pH 7.4 (phosphate-buffered saline) were added. An aliquot of […] in 10 μL of the radioligand was added to this mixture, shaken for 30 min, and then centrifuged at 3000 rcf for 10 min to achieve phase separation. Aliquots of 100 μL were removed from the 1-octanol and from the PBS phases, and the activity was measured in a […]. The partition coefficient was calculated as the average log ratio value of the radioactivity in the organic fraction and PBS fraction.

LNCaP cells = test: In vitro cellular uptake (cell surface and internalized fractions) in LNCaP cells; format: cell-based; conditions: for Cell surface fraction / Internalized fraction: specific uptake
Protocol: The cellular uptake was studied in vitro using intact cells seeded in 6-well plates overnight. On the day of the experiment, the cells were washed and incubated with each of the exemplified [^61Cu]Cu-radiotracer at different time points, either alone or in the presence of a blocking agent to distinguish between specific and non-specific uptake. At each investigated time point, the medium containing the unbound (free) radiotracer was removed, followed by two washing steps with ice-cold phosphate-buffered saline. The cells were then treated 2×5 min with ice-cold glycine solution (0.05 M, pH 2.8) to detach the cell surface-bound radiotracer (acid released). Afterwards, the cells containing the internalized radiotracer were detached with 1 M NaOH at 37° C. and collected for measurement. The amount of specific cell surface-bound and internalized radiotracer is expressed as percentage of the total applied activity, after subtracting the non-specific values.
2-(phosphonomethyl)-pentanedioic acid (2-PMPA, 10 μM) was used to determine non-specific binding (FIG. 14).
Cellular uptake and distribution between cell surface (cell membrane bound) and internalized fractions of ^61Cu-labeled PSMA-I&T constructs versus their ^68Ga counterparts (Table 19). The values are expressed as % of the applied activity and refer to the specific uptake calculated after subtracting the non-specific values (measured in the presence of 10 μM 2-PMPA) from the total values (specific=total−non specific).

LNCaP xenografts [2] = test: Quantitative biodistribution in LNCaP xenografted mice; format: in vivo; conditions: LNCaP xenografts
Protocol: as §2
The biodistribution of the [^61Cu]Cu-NODAGA radiotracers was compared with the reference compounds used in patients under identical experimental conditions. The mice were randomly distributed in groups, injected with the radiotracer under investigation and euthanized at 1 and at 4 hours post-injection of the radiotracers under investigation. The organs of interest were collected, rinsed, blotted, weighed and counted in a gamma counter. The results are expressed as percentage of injected activity per gram (% IA/g), representing the mean±standard deviation of all mice per group and they were obtained by extrapolation from counts of an aliquot taken from the injected solution as standard.

PSMA = PSMA (Homo sapiens (Human), UniProt Q04609); test: Specificity study: PET/CT in LNCaP xenografts after blocking with 2-PMPA, and free [61Cu]CuCl2; format: in vivo, mice; conditions: PET/CT 1 hour p.i.
Protocol: The specificity of [^61Cu]Cu-NODAGA-PSMA-I&T and [^61Cu]Cu-DOTAGA-PSMA-I&T was assessed in LNCaP xenografted mice, firstly injected with 1.3 μmol (300 μg) of 2-Phosphonomethyl pentanedioic acid (2-PMPA) as the blocking agent, followed by the injection of the radiotracer e.g. [^61Cu]Cu-DOTAGA-PSMA-I&T (100 μL/[…]/4-8 MBq) or [^61Cu]Cu-NODAGA-PSMA-I&T (100 μL/[…]/4-8 MBq). One-hour post injection PET/CT images were acquired as described in Example 8. In addition, PET/CT image of xenografts after injection of [^61Cu]CuCl2 (100 μL/7 MBq) was acquired in order to assess the total body distribution of free (uncomplexed)^61Cu. The results are shown in FIG. 10, panels A and B. L=liver; K=kidneys; T=tumor; Bl=bladder; I=intestine.

LNCaP xenografts [3] = test: PET/CT imaging in LNCaP xenografted mice; format: in vivo; conditions: LNCaP-xenografted nude mice
Protocol: as §1

Sequence of PSMA (Q04609 whole entry): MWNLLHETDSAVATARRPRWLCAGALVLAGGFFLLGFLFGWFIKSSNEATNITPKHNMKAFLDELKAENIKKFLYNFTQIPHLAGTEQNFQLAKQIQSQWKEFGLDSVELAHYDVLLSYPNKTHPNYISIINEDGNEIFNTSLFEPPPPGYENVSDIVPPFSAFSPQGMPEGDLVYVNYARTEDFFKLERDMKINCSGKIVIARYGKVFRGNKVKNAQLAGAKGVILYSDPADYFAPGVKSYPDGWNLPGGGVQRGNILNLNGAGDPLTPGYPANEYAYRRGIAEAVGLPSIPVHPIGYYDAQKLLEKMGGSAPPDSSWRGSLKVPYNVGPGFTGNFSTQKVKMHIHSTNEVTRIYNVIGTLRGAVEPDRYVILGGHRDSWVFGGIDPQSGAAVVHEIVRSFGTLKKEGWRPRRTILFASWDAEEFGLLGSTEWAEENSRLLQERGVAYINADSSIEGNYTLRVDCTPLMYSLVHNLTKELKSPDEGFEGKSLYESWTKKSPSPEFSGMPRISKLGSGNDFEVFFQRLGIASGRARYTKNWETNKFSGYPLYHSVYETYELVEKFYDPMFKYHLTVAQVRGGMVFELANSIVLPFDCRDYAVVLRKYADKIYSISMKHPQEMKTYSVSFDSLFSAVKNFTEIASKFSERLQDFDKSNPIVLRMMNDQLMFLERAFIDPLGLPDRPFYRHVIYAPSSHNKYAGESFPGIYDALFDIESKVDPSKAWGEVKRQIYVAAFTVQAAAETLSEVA

In the case of `C[C@@H](O)[C@@H]1NC(=O)[C@H](CCCCN)NC(=O)[C@@H](Cc2ccc(NC(N)=O)cc2)NC(=O)[C@H](Cc2ccc(O)cc2)NC(=O)[C@H](NC(=O)[C@H](Cc2ccc(Cl)cc2)NC(=O)CC[C@H](C(=O)O)N2CCN(CC(=O)O)CCN(CC(=O)O)CC2)CSSC[C@@H](C(=O)N[C@H](Cc2ccc(O)cc2)C(N)=O)NC1=O` [[^61Cu]Cu-(R)-NODAGA-LM3, metal not drawn], the “distribution pattern on PET/CT” value (HEK-SST2 xenografts) is reported as “same distribution pattern”, the tissue uptake at 4 h (in vivo; athymic nude Foxn1+Foxn1+, mouse, Biodistribution Adrenal) is reported as 0.61 ± 0.18 %ID/g and the tissue uptake at 4 h (in vivo; athymic nude Foxn1+Foxn1+, mouse, Biodistribution Blood) is reported as 0.1 ± 0.01 %ID/g. For the same compound, the tissue uptake at 4 h (in vivo; athymic nude Foxn1+Foxn1+, mouse, Biodistribution Heart) was 0.17 ± 0.02 %ID/g, the tissue uptake at 4 h (in vivo; athymic nude Foxn1+Foxn1+, mouse, Biodistribution Intestine) was 0.58 ± 0.13 %ID/g and the tissue uptake at 4 h (in vivo; athymic nude Foxn1+Foxn1+, mouse, Biodistribution Liver) was 0.73 ± 0.06 %ID/g. It also gave a tissue uptake at 4 h (in vivo; athymic nude Foxn1+Foxn1+, mouse, Biodistribution Lung) of 0.42 ± 0.05 %ID/g, a tissue uptake at 4 h (in vivo; athymic nude Foxn1+Foxn1+, mouse, Biodistribution Pancreas) of 0.44 ± 0.24 %ID/g and a tissue uptake at 4 h (in vivo; athymic nude Foxn1+Foxn1+, mouse, Biodistribution Spleen) of 0.17 ± 0.02 %ID/g. The tissue uptake at 4 h (in vivo; athymic nude Foxn1+Foxn1+, mouse, Biodistribution Stomach) was 0.78 ± 0.14 %ID/g, the tissue uptake at 4 h (in vivo; athymic nude Foxn1, mouse, Biodistribution Bone) was 0.42 ± 0.12 %ID/g and the tissue uptake at 4 h (in vivo; athymic nude Foxn1, mouse, Biodistribution Kidneys) was 3.87 ± 0.51 %ID/g. The tissue uptake at 4 h (in vivo; athymic nude Foxn1, mouse, Biodistribution Muscle) was 0.1 ± 0.02 %ID/g, the tissue uptake at 4 h (in vivo; athymic nude Foxn1, mouse, Biodistribution Pituitary) was 3.64 ± 0.31 %ID/g and the tissue uptake at 4 h (in vivo; athymic nude Foxn1, mouse, Biodistribution SSTR2-tumor) was 19 ± 2.11 %ID/g.

In the case of `O=C([O-])CN1CCN(CC(=O)[O-])CCN(C(CCC(=O)N[C@H](Cc2ccc(O)c(I)c2)C(=O)N[C@H](Cc2ccccc2)C(=O)N[C@H](CCCCNC(=O)CCCCCCC(=O)NCCCC[C@H](NC(=O)N[C@@H](CCC(=O)O)C(=O)O)C(=O)O)C(=O)O)C(=O)O)CCN(CC(=O)O)CC1.[61Cu+2]` (stereo partly shown) [[^61Cu]Cu-DOTAGA-PSMA-I&T], the “log D(O/PBS pH 7.4)” value [1] is reported as −2.69±0.44, the Cell surface fraction (LNCaP cells; 5 min) is reported as 3.7 ± 0.5 % of the applied activity and the Internalized fraction (LNCaP cells; 5 min) is reported as 0.7 ± 0.1 % of the applied activity. For the same compound, the Cell surface fraction (LNCaP cells; 15 min) was 8.1 ± 0.7 % of the applied activity, the Internalized fraction (LNCaP cells; 15 min) was 2.8 ± 0.2 % of the applied activity and the Cell surface fraction (LNCaP cells; 30 min) was 11.6 ± 1.0 % of the applied activity. For the same compound, the Internalized fraction (LNCaP cells; 30 min) was 6.2 ± 0.5 % of the applied activity, the Cell surface fraction (LNCaP cells; 60 min) was 13.4 ± 0.8 % of the applied activity and the Internalized fraction (LNCaP cells; 60 min) was 13.3 ± 0.5 % of the applied activity. For the same compound, the Cell surface fraction (LNCaP cells; 120 min) was 14.7 ± 1.0 % of the applied activity, the Internalized fraction (LNCaP cells; 120 min) was 21.3 ± 0.9 % of the applied activity and the PSMA-mediated cellular uptake (LNCaP cells; after 2h at 37° C.) was “approx. 35%”. The “part of the cellular uptake being internalized” value (LNCaP cells; after 2h at 37° C.) was 50-60%, the “Biodistribution Adrenal” value (LNCaP xenografts [2]; 1 hour p.i.) was 9.35 ± 1.50 % IA/g and the “Biodistribution Blood” value (LNCaP xenografts [2]; 1 hour p.i.) was 2.06 ± 0.24 % IA/g. The “Biodistribution Bone” value (LNCaP xenografts [2]; 1 hour p.i.) was 2.31 ± 0.36 % IA/g, the “Biodistribution Heart” value (LNCaP xenografts [2]; 1 hour p.i.) was 3.73 ± 0.32 % IA/g and the “Biodistribution Intestine” value (LNCaP xenografts [2]; 1 hour p.i.) was 8.95 ± 0.62 % IA/g. For the same compound, the “Biodistribution Kidneys” value (LNCaP xenografts [2]; 1 hour p.i.) was 57 ± 6 % IA/g, the “Biodistribution LNCaP-tumor” value (LNCaP xenografts [2]; 1 hour p.i.) was 6.06 ± 0.25 % IA/g and the “Biodistribution Liver” value (LNCaP xenografts [2]; 1 hour p.i.) was 19.3 ± 3.3 % IA/g. The “Biodistribution Lung” value (LNCaP xenografts [2]; 1 hour p.i.) was 6.35 ± 0.35 % IA/g, the “Biodistribution Muscle” value (LNCaP xenografts [2]; 1 hour p.i.) was 1.00 ± 0.05 % IA/g and the “Biodistribution Pancreas” value (LNCaP xenografts [2]; 1 hour p.i.) was 2.82 ± 0.67 % IA/g. The “Biodistribution Salivary glands” value (LNCaP xenografts [2]; 1 hour p.i.) was 5.60 ± 1.39 % IA/g, the “Biodistribution Spleen” value (LNCaP xenografts [2]; 1 hour p.i.) was 4.64 ± 1.35 % IA/g and the “Biodistribution Stomach” value (LNCaP xenografts [2]; 1 hour p.i.) was 7.77 ± 0.62 % IA/g. For the same compound, the “Ratio Tumor/Blood” value (LNCaP xenografts [2]; 1 hour p.i.) was 2.97 ± 0.23, the “Ratio Tumor/Kidney” value (LNCaP xenografts [2]; 1 hour p.i.) was 0.11 ± 0.01 and the “Ratio Tumor/Liver” value (LNCaP xenografts [2]; 1 hour p.i.) was 0.32 ± 0.05. The “Ratio Tumor/Muscles” value (LNCaP xenografts [2]; 1 hour p.i.) was 6.08 ± 0.22, the “Biodistribution Adrenal” value (LNCaP xenografts [2]; 4 hours p.i.) was 6.46 ± 2.38 % IA/g and the “Biodistribution Blood” value (LNCaP xenografts [2]; 4 hours p.i.) was 1.12 ± 0.24 % IA/g. For the same compound, the “Biodistribution Bone” value (LNCaP xenografts [2]; 4 hours p.i.) was 1.69 ± 0.25 % IA/g, the “Biodistribution Heart” value (LNCaP xenografts [2]; 4 hours p.i.) was 2.08 ± 0.33 % IA/g and the “Biodistribution Intestine” value (LNCaP xenografts [2]; 4 hours p.i.) was 7.74 ± 1.76 % IA/g. The “Biodistribution Kidneys” value (LNCaP xenografts [2]; 4 hours p.i.) was 22.1 ± 2.2 % IA/g, the “Biodistribution LNCaP-tumor” value (LNCaP xenografts [2]; 4 hours p.i.) was 4.88 ± 0.63 % IA/g and the “Biodistribution Liver” value (LNCaP xenografts [2]; 4 hours p.i.) was 13.9 ± 2.2 % IA/g. For the same compound, the “Biodistribution Lung” value (LNCaP xenografts [2]; 4 hours p.i.) was 4.67 ± 0.76 % IA/g, the “Biodistribution Muscle” value (LNCaP xenografts [2]; 4 hours p.i.) was 0.48 ± 0.08 % IA/g and the “Biodistribution Pancreas” value (LNCaP xenografts [2]; 4 hours p.i.) was 1.71 ± 0.23 % IA/g. For the same compound, the “Biodistribution Salivary glands” value (LNCaP xenografts [2]; 4 hours p.i.) was 2.31 ± 0.19 % IA/g, the “Biodistribution Spleen” value (LNCaP xenografts [2]; 4 hours p.i.) was 2.95 ± 0.73 % IA/g and the “Biodistribution Stomach” value (LNCaP xenografts [2]; 4 hours p.i.) was 7.10 ± 0.97 % IA/g. The “Ratio Tumor/Blood” value (LNCaP xenografts [2]; 4 hours p.i.) was 4.56 ± 1.49, the “Ratio Tumor/Kidney” value (LNCaP xenografts [2]; 4 hours p.i.) was 0.22 ± 0.04 and the “Ratio Tumor/Liver” value (LNCaP xenografts [2]; 4 hours p.i.) was 0.35 ± 0.05. For the same compound, the “Ratio Tumor/Muscles” value (LNCaP xenografts [2]; 4 hours p.i.) was 10.5 ± 2.8, the “accumulation in tumor and target-positive tissues” value (LNCaP xenografts [2]) was “high accumulation in PSMA-positive (LNCaP) tumor and PSMA-positive tissues” and the “uptake in PSMA-positive tumors and kidneys in xenografts pre-injected with 2-PMPA” value (PSMA) was “significantly lower uptake”. For the same compound, the “distribution on PET/CT images” value (LNCaP xenografts [3]) was “lower tumor, but also lower kidney uptake”.
